The record followed here is patent US20230357447A1, “TUMOR ACTIVATED MULTISPECIFIC ANTIBODIES FOR TARGETING CD28 AND PD-L1 AND METHODS OF USE THEREOF” (Janux Therapeutics, Inc., priority 2022, published 2023).

The first assay has as its system anti-CD28 scFv. In words: Phage binding ELISA (panning) of clonal phage on anti-CD28 scFv, with or without CD28 soluble protein. The settings on record: Phage binding ELISA; clonal phage supernatant, background wells. On the procedure: Clonal phage were harvested as crude supernatants and screened via standard enzyme linked immunosorbent assays (ELISAs). […] Prior to the addition of clonal phage, wells were incubated with blocking buffer and CD28 soluble protein or blocking buffer alone. Without washing or aspirating, clonal phage supernatants were then added to the wells and incubated for a short time. Wells were then washed followed by detection of bound phage using a horse radish peroxidase conjugated anti-M13 antibody. Clonal phage of interest were then sent for sequence analysis.
Substance Phage-118 (MDWCPRHLWDECFF) gave a Backgroud signal of 0.074. As to Phage-119 (MDWCPRYLWHMCYS), the Backgroud signal is recorded as 0.129. In the case of Phage-120 (MDWCPRDLWHACFS), the Backgroud signal is given as 0.074. Turning to Phage-121 (MDWCPRDLWHVCFF), the Backgroud signal came out at 0.068.

In turn, Phage-122 (MDWCPRDLWDQCYA) showed a Backgroud signal of 0.059.

With Phage-123 (MDWCPIHLWNECFA), the Backgroud signal is recorded as 0.104. As for Phage-124 (MDWCPRPLWDMCFF), the Backgroud signal is recorded as 0.063. The same measure, in the same setting: the figure for Phage-125 (MDWCPVSLWHVCFY) is 0.107; for Phage-126 (MDWCPRFLWNECFN) it is 0.072. Still for that read-out and setting: the figure for Phage-127 (MDWCPRALWNECFA) is 0.080. In turn, Phage-128 (MDWCPRDLWIECFF) yielded a Backgroud signal of 0.084.

Substance Phage-129 (MDWCPSYLWTVCFA) displayed a Backgroud signal of 0.062. Consider Phage-130 (MDWCPRYLWDACFF), for which the Backgroud signal turned out to be 0.066. For the substance Phage-131 (MDWCPRSLWIYCFN), the Backgroud signal came out at 0.113. With Phage-132 (MDWCPTYLWFECFN), the Backgroud signal stood at 0.205. Phage-133 (MDWCPRFLWDECFF) had a Backgroud signal of 0.064.

In turn, Phage-134 (MDWCPSYLWHECFA) returned a Backgroud signal of 0.096. In turn, Phage-135 (MDWCPKFLWHECFS) returned a Backgroud signal of 0.065.

Phage-136 (MHWCPIYLWDECFN) gave a Backgroud signal of 0.071. For the substance Phage-137 (MDWCPRYLWHECFH), the Backgroud signal amounted to 0.101. Turning to Phage-138 (MDWCPTNLWHECFA), the Backgroud signal is listed as 0.061. In turn, Phage-139 (MDWCPRDLWDVCFA) gave a Backgroud signal of 0.096. Same read-out and setting: the figure for Phage-140 (MDWCPMDLWDVCFN) is 0.090; for Phage-141 (MDWCPRSLWNVCFF) it is 0.106.

Phage-142 (MDWCPVILWDFCFN) registered a Backgroud signal of 0.066.

In the case of Phage-143 (LDWCPLNLWDLCYF), the Backgroud signal was 0.062. The same measure, in the same setting: the figure for Phage-144 (MDWCPRHLWYACFN) is 0.061. Substance Phage-145 (MDWCPKHLWIECFA) displayed a Backgroud signal of 0.065. Same read-out and setting: the figure for Phage-146 (MDWCPRHLWSECFY) is 0.136; for Phage-147 (MHWCPRDLWVVCFN) it is 0.070. The substance Phage-148 (MHWCPEYLWNECFA) displayed a Backgroud signal of 0.074. Consider Phage-149 (MDWCPRDLWAVCFA), for which the Backgroud signal was found to be 0.070. In the case of Phage-150 (MDWCPRHLWNVCFS), the Backgroud signal is 0.058. Phage-151 (MDFCPISLWHECFF): the Backgroud signal is reported as 0.081. Take Phage-152 (MDWCPKYLWDKCFH): the Backgroud signal is given as 0.073. On the same count and under the same terms, the figure for Phage-153 (MDWCPRHLWDLCFF) is 0.093. Substance Phage-154 (MDWCPRDLWNVCFA) gave a Backgroud signal of 0.114.

Phage-155 (MHWCPLHLWNECYH) showed a Backgroud signal of 0.063. Phage-156 (MDWCPKHLWHQCFH) registered a Backgroud signal of 0.058. Substance Phage-157 (MDWCPRSLWSYCFH) displayed a Backgroud signal of 0.066. Take Phage-158 (MDWCPRYLWTECFF): the Backgroud signal stood at 0.110.

Still in this assay, the particulars now being: clonal phage supernatant; background signal.
Regarding Phage-159 (MAWCPMNLWDQCFF), the “Phage binding ELISA Backgroud signal” value is given as 0.070.

Consider Phage-160 (MHWCPRALWHECFN), for which the “Phage binding ELISA Backgroud signal” value worked out at 0.070. As to Phage-161 (MDWCPRHLWDQCFA), the “Phage binding ELISA Backgroud signal” value turned out to be 0.150. In the case of Phage-162 (MNWCPTDLWHECFN), the “Phage binding ELISA Backgroud signal” value is on record as 0.087.

As for Phage-163 (MFWCPRYLWHECFN), the “Phage binding ELISA Backgroud signal” value was 0.086.

Regarding Phage-164 (MDWCPKFLWDLCFA), the “Phage binding ELISA Backgroud signal” value was 0.100. Phage-165 (MDWCPFYLWDECFL): the “Phage binding ELISA Backgroud signal” value stood at 0.070. On the same count and under the same terms, the figure for Phage-166 (MDWCPRHLWDLCFA) is 0.061. Consider Phage-167 (MSWCPQDLWHVCFN), for which the “Phage binding ELISA Backgroud signal” value turned out to be 0.095. As for Phage-168 (MDWCPKDLWHECFN), the “Phage binding ELISA Backgroud signal” value came out at 0.073. Still for that read-out and setting: the figure for Phage-169 (MDWCPRDLWNVCFN) is 0.100. For Phage-170 (MNWCPSDLWHLCFN), the “Phage binding ELISA Backgroud signal” value is 0.071. On to Phage-171 (MNWCPSHLWHMCYF), for which the “Phage binding ELISA Backgroud signal” value is listed as 0.195. For Phage-172 (MDWCPPYLWYECFA), the “Phage binding ELISA Backgroud signal” value amounted to 0.068. In the case of Phage-173 (MDWCPMNLWSECFN), the “Phage binding ELISA Backgroud signal” value came to 0.168.

On to Phage-174 (MDWCPKHLWNECFN), for which the “Phage binding ELISA Backgroud signal” value is listed as 0.063. Consider Phage-175 (MDWCPAYLWAECFS), for which the “Phage binding ELISA Backgroud signal” value is given as 0.082. Phage-176 (MDWCPSDLWHECFH): the “Phage binding ELISA Backgroud signal” value is recorded as 0.075.

Take Phage-177 (MDWCPVSLWDHCFN): the “Phage binding ELISA Backgroud signal” value amounted to 0.075.

Regarding Phage-178 (LDWCPRDLWHVCFF), the “Phage binding ELISA Backgroud signal” value is recorded as 0.176. For Phage-179 (MDWCPWILWNECFN), the “Phage binding ELISA Backgroud signal” value worked out at 0.141. Regarding Phage-180 (MHWCPRYLWDECFN), the “Phage binding ELISA Backgroud signal” value is on record as 0.132. For Phage-181 (MYWCPRDLWDVCFN), the “Phage binding ELISA Backgroud signal” value worked out at 0.145. In the case of Phage-182 (MHWCPRSLWNECYF), the “Phage binding ELISA Backgroud signal” value was determined as 0.168. As for Phage-183 (IDWCPRDLWALCFN), the “Phage binding ELISA Backgroud signal” value turned out to be 0.127. As for Phage-184 (MHWCPINLWNECFS), the “Phage binding ELISA Backgroud signal” value came to 0.081.

In the case of Phage-185 (MERCPRFLWNECFN), the “Phage binding ELISA Backgroud signal” value was 0.132. As for Phage-186 (QDWCPTYLWHHCFN), the “Phage binding ELISA Backgroud signal” value was 0.101. With Phage-187 (IGKLTLCLNADLVI), the “Phage binding ELISA Backgroud signal” value is 0.274. Consider Phage-188 (MDWCPSYLWDQCFF), for which the “Phage binding ELISA Backgroud signal” value is 0.100. In the case of Phage-189 (VDWCPRYLWHVCYN), the “Phage binding ELISA Backgroud signal” value is on record as 0.064.

On to Phage-190 (MDWCPRDMWAECFF), for which the “Phage binding ELISA Backgroud signal” value is 0.099. Phage-191 (MDWCPRDMWYECFN): the “Phage binding ELISA Backgroud signal” value was determined as 0.099. On to Phage-192 (DVWCPKYMWSLCFN), for which the “Phage binding ELISA Backgroud signal” value worked out at 0.101.

As to Phage-193 (MDWCPMDMWVNCFN), the “Phage binding ELISA Backgroud signal” value came out at 0.059.

Take Phage-194 (MDWCPSDMWHECYA): the “Phage binding ELISA Backgroud signal” value turned out to be 0.062. In the case of Phage-195 (MDWCPKHMWFMCFN), the “Phage binding ELISA Backgroud signal” value turned out to be 0.101. As for Phage-196 (MDWCPRYMWYQCFS), the “Phage binding ELISA Backgroud signal” value is given as 0.079.

Take Phage-197 (MDWCPRHMWYECFF): the “Phage binding ELISA Backgroud signal” value stood at 0.129.

Consider Phage-198 (MDWCPRAMWNHCFN), for which the “Phage binding ELISA Backgroud signal” value was 0.321. For the substance Phage-199 (MDWCPRNMWAQCFA), the “Phage binding ELISA Backgroud signal” value stood at 0.102. The same measure, in the same setting: the figure for Phage-200 (MFWCPFDMWHFCFN) is 0.150; for Phage-201 (MDWCPRDMWDQCFD) it is 0.072; for Phage-202 (MFWCPMDMWDQCFN) it is 0.091. Phage-203 (MSWCPRDMWFYCYA): the “Phage binding ELISA Backgroud signal” value is 0.065. On the same count and under the same terms, the figure for Phage-204 (MDWCPRHMWNVCFS) is 0.067; for Phage-205 (MDWCPTDMWHHCFL) it is 0.061. As to Phage-206 (IHWCPINMWDKCYN), the “Phage binding ELISA Backgroud signal” value came out at 0.060. As to Phage-207 (MDWCPRAMWHECFY), the “Phage binding ELISA Backgroud signal” value stood at 0.069. On to Phage-208 (MDWCPTDMWIVCFA), for which the “Phage binding ELISA Backgroud signal” value is reported as 0.363. As for Phage-209 (IDWCPQDMWFYCFN), the “Phage binding ELISA Backgroud signal” value is 0.069.

For the substance Phage-210 (MDWCPRDMWFECFA), the “Phage binding ELISA Backgroud signal” value is given as 0.076. With Phage-211 (MDWCPRNMWTVCFL), the “Phage binding ELISA Backgroud signal” value stood at 0.060. Phage-212 (MDWCPRAMWDKCFF): the “Phage binding ELISA Backgroud signal” value is given as 0.073. For Phage-213 (MNWCPSYMWDQCFA), the “Phage binding ELISA Backgroud signal” value is 0.125. Consider Phage-214 (MDWCPTYMWSECFN), for which the “Phage binding ELISA Backgroud signal” value was 0.086. Consider Phage-215 (MDWCPRYMWNECFN), for which the “Phage binding ELISA Backgroud signal” value amounted to 0.064. On the same count and under the same terms, the figure for Phage-216 (MDWCPMNMWYQCFN) is 0.110.

For Phage-217 (MDWCPWDMWDKCFN), the “Phage binding ELISA Backgroud signal” value is given as 0.101. On the same count and under the same terms, the figure for Phage-218 (TFGCPTTMWNRCFA) is 0.117; for Phage-219 (NYWCPSSMWNRCLH) it is 0.295.

For Phage-220 (FDFCPTTMWTYCQH), the “Phage binding ELISA Backgroud signal” value is 0.084. Turning to Phage-221 (TTWCPTSMWLHCFD), the “Phage binding ELISA Backgroud signal” value is listed as 0.096. With Phage-222 (MDWCPRDQWHNCFN), the “Phage binding ELISA Backgroud signal” value came to 0.075. With Phage-223 (MDWCPRDRWVDCFF), the “Phage binding ELISA Backgroud signal” value is on record as 0.066. Consider Phage-224 (MDWCPKDRWNDCYF), for which the “Phage binding ELISA Backgroud signal” value was determined as 0.078. As for Phage-225 (MDWCPRDRWADCFF), the “Phage binding ELISA Backgroud signal” value is reported as 0.069.

Turning to Phage-226 (MDWCPRDRWIDCFN), the “Phage binding ELISA Backgroud signal” value is on record as 0.218.
